# Biological target: T1, Hepcidin (Homo sapiens) (UniProt P81172)
# T1 sequence (whole entry): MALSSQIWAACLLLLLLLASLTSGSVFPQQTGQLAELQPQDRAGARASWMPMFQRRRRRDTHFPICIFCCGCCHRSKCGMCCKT
# Assay: Inhibition of human hepcidin-stimulated recombinant C-terminal Halo-tagged human FPN internalization in MDCK cells at 10 uM incubated for 15 to 20 mins by Halo-tagged TMR based fluorescence assay relative to control
# Format: cell-based
row,Compound,inhibition [%]
1,Oc1c(C(Nc2ccccn2)c2cccnc2)cc(Cl)c2cccnc12 (stereo unspecified),< 50
2,Oc1c(C(c2ccccn2)N2CCOCC2)ccc2cccnc12 (stereo unspecified),> 50

# The next lines start with the values.
row,inhibition [%],Compound
1,< 50,O=C(Oc1c(CN2CCOCC2)cc(Cl)c2cccnc12)c1ccccc1
2,< 50,O=C(Oc1c(CN2CCOCC2)cc(Cl)c2cccnc12)c1ccco1
3,< 50,COc1cc(C(=O)Oc2c(CN3CCOCC3)cc(Cl)c3cccnc23)cc(OC)c1OC
4,< 50,Oc1c(C(c2ccc(Cl)cc2)N2CCOCC2)cc(Cl)c2cccnc12 (stereo unspecified)
